{"source": "patent US20080153896A1", "about": "“Polymorphic Forms of an HMG-CoA Reductase Inhibitor and Uses Thereof” (priority 2006, published 2008)", "experiment": "Stability (integrity) testing of amorphous and polymorphic form under storage conditions, RP-HPLC", "assay_type": "physicochemical", "design": "Impurity RRT 1.104 / Impurity RRT 1.698: unit not given beside the values", "outline": "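Amorphous form and three batches of polymorphic Form I of the hemi calcium salt were stored under different atmospheric conditions. Purity measured by RP-HPLC on C18 with UV detection, drug as percent of total absorption; total impurity from summed impurity peak areas, impurities identified by relative retention time.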", "data": [{"molecule": "CC(C)c1c(C(=O)Nc2ccc(CO)cc2)c(-c2ccccc2)c(-c2ccc(F)cc2)n1CC[C@@H](O)C[C@@H](O)CC(=O)[O-].CC(C)c1c(C(=O)Nc2ccc(CO)cc2)c(-c2ccccc2)c(-c2ccc(F)cc2)n1CC[C@@H](O)C[C@@H](O)CC(=O)[O-].[Ca+2]", "note": "[PP00105, (3R, 5R)-7-[2-(4-fluorophenyl)-5-isopropyl-3-phenyl-4-[(4-hydroxymethylphenylamino)carbonyl]-pyrrol-1-yl]-3,5-dihydroxy-heptanoic acid, hemi calcium salt]", "values": [{"measurement": "Description", "setting": "5° C. 1M", "value": "White"}, {"measurement": "Impurity RRT 1.096", "setting": "5° C. 1M", "value": 0.248}, {"measurement": "Impurity RRT 1.183", "setting": "5° C. 1M", "value": 0.051}, {"measurement": "Impurity RRT 1.439", "setting": "5° C. 1M", "value": 0.17}, {"measurement": "Impurity RRT 1.596", "setting": "5° C. 1M", "value": 0.086}, {"measurement": "Impurity RRT 1.698", "setting": "5° C. 1M", "value": 0.068}, {"measurement": "Assay", "setting": "5° C. 1M, hemi calcium salt", "value": 98.36, "unit": "% W/W"}, {"measurement": "Highest Impurity", "setting": "5° C. 1M, hemi calcium salt", "value": 0.459}, {"measurement": "Impurity RRT 0.935", "setting": "5° C. 1M, hemi calcium salt", "value": 0.412}, {"measurement": "Impurity RRT 1.045", "setting": "5° C. 1M, hemi calcium salt", "value": 0.459}, {"measurement": "Impurity RRT 1.64", "setting": "5° C. 1M, hemi calcium salt", "value": 0.063}, {"measurement": "Total Impurity", "setting": "5° C. 1M, hemi calcium salt", "value": 1.56}, {"measurement": "Water", "setting": "5° C. 1M, hemi calcium salt", "value": 4.45, "unit": "% W/W"}, {"measurement": "Description", "setting": "5° C. 2M", "value": "White"}, {"measurement": "Impurity RRT 1.096", "setting": "5° C. 2M", "value": 0.233}, {"measurement": "Impurity RRT 1.183", "setting": "5° C. 2M", "value": 0.06}, {"measurement": "Impurity RRT 1.439", "setting": "5° C. 2M", "value": 0.163}, {"measurement": "Impurity RRT 1.596", "setting": "5° C. 2M", "value": 0.079}, {"measurement": "Impurity RRT 1.698", "setting": "5° C. 2M", "value": 0.07}, {"measurement": "Assay", "setting": "5° C. 2M, hemi calcium salt", "value": 98.24, "unit": "% W/W"}, {"measurement": "Highest Impurity", "setting": "5° C. 2M, hemi calcium salt", "value": 0.443}, {"measurement": "Impurity RRT 0.935", "setting": "5° C. 2M, hemi calcium salt", "value": 0.413}, {"measurement": "Impurity RRT 1.045", "setting": "5° C. 2M, hemi calcium salt", "value": 0.443}, {"measurement": "Impurity RRT 1.64", "setting": "5° C. 2M, hemi calcium salt", "value": 0.06}, {"measurement": "Total Impurity", "setting": "5° C. 2M, hemi calcium salt", "value": 1.52}, {"measurement": "Water", "setting": "5° C. 2M, hemi calcium salt", "value": 4.31, "unit": "% W/W"}, {"measurement": "Description", "setting": "5° C. 3M", "value": "White"}, {"measurement": "Impurity RRT 1.096", "setting": "5° C. 3M", "value": 0.216}, {"measurement": "Impurity RRT 1.439", "setting": "5° C. 3M", "value": 0.150}, {"measurement": "Impurity RRT 1.596", "setting": "5° C. 3M", "value": 0.068}, {"measurement": "Impurity RRT 1.698", "setting": "5° C. 3M", "value": 0.068}, {"measurement": "Total Impurity", "setting": "5° C. 3M", "value": 1.35}, {"measurement": "Assay", "setting": "5° C. 3M, hemi calcium salt", "value": 98.19, "unit": "% W/W"}, {"measurement": "Highest Impurity", "setting": "5° C. 3M, hemi calcium salt", "value": 0.414}, {"measurement": "Impurity RRT 0.935", "setting": "5° C. 3M, hemi calcium salt", "value": 0.376}, {"measurement": "Impurity RRT 1.045", "setting": "5° C. 3M, hemi calcium salt", "value": 0.414}, {"measurement": "Impurity RRT 1.64", "setting": "5° C. 3M, hemi calcium salt", "value": 0.055}, {"measurement": "Water", "setting": "5° C. 3M, hemi calcium salt", "value": 3.90, "unit": "% W/W"}, {"measurement": "Description", "setting": "5° C. 4M", "value": "White"}, {"measurement": "Impurity RRT 0.138", "setting": "5° C. 4M", "value": 0.228}, {"measurement": "Impurity RRT 1.096", "setting": "5° C. 4M", "value": 0.205}, {"measurement": "Impurity RRT 1.439", "setting": "5° C. 4M", "value": 0.159}, {"measurement": "Impurity RRT 1.596", "setting": "5° C. 4M", "value": 0.060}, {"measurement": "Impurity RRT 1.698", "setting": "5° C. 4M", "value": 0.052}, {"measurement": "Assay", "setting": "5° C. 4M, hemi calcium salt", "value": 98.17, "unit": "% W/W"}, {"measurement": "Highest Impurity", "setting": "5° C. 4M, hemi calcium salt", "value": 0.427}, {"measurement": "Impurity RRT 0.935", "setting": "5° C. 4M, hemi calcium salt", "value": 0.341}, {"measurement": "Impurity RRT 1.045", "setting": "5° C. 4M, hemi calcium salt", "value": 0.427}, {"measurement": "Impurity RRT 1.640", "setting": "5° C. 4M, hemi calcium salt", "value": 0.051}, {"measurement": "Total Impurity", "setting": "5° C. 4M, hemi calcium salt", "value": 1.523}, {"measurement": "Water", "setting": "5° C. 4M, hemi calcium salt", "value": 5.08, "unit": "% W/W"}, {"measurement": "Description", "setting": "5° C. 5M", "value": "White"}, {"measurement": "Impurity RRT 0.138", "setting": "5° C. 5M", "value": 0.22}, {"measurement": "Impurity RRT 1.096", "setting": "5° C. 5M", "value": 0.236}, {"measurement": "Impurity RRT 1.439", "setting": "5° C. 5M", "value": 0.122}, {"measurement": "Impurity RRT 1.596", "setting": "5° C. 5M", "value": 0.054}, {"measurement": "Impurity RRT 1.698", "setting": "5° C. 5M", "value": 0.065}, {"measurement": "Assay", "setting": "5° C. 5M, hemi calcium salt", "value": 98.27, "unit": "% W/W"}, {"measurement": "Highest Impurity", "setting": "5° C. 5M, hemi calcium salt", "value": 0.401}, {"measurement": "Impurity RRT 0.935", "setting": "5° C. 5M, hemi calcium salt", "value": 0.373}, {"measurement": "Impurity RRT 1.045", "setting": "5° C. 5M, hemi calcium salt", "value": 0.401}, {"measurement": "Impurity RRT 1.640", "setting": "5° C. 5M, hemi calcium salt", "value": 0.047}, {"measurement": "Total Impurity", "setting": "5° C. 5M, hemi calcium salt", "value": 1.527}, {"measurement": "Water", "setting": "5° C. 5M, hemi calcium salt", "value": 4.67, "unit": "% W/W"}, {"measurement": "Description", "setting": "5° C. 6M", "value": "White"}, {"measurement": "Impurity RRT 0.138", "setting": "5° C. 6M", "value": 0.238}, {"measurement": "Impurity RRT 1.096", "setting": "5° C. 6M", "value": 0.189}, {"measurement": "Impurity RRT 1.183", "setting": "5° C. 6M", "value": 0.056}, {"measurement": "Impurity RRT 1.439", "setting": "5° C. 6M", "value": 0.146}, {"measurement": "Impurity RRT 1.596", "setting": "5° C. 6M", "value": 0.080}, {"measurement": "Impurity RRT 1.698", "setting": "5° C. 6M", "value": 0.059}, {"measurement": "Water", "setting": "5° C. 6M", "value": 5.04, "unit": "% W/W"}, {"measurement": "Assay", "setting": "5° C. 6M, hemi calcium salt", "value": 98.61, "unit": "% W/W"}, {"measurement": "Highest Impurity", "setting": "5° C. 6M, hemi calcium salt", "value": 0.438}]}]}
